# From patent US20240285680A1, “METHOD OF TREATING ALZHEIMER'S DISEASE” (Vector Vitale IP LLC, priority 2021, published 2024)
# Where “and” joins values, the source holds several entries; their conditions need not be identical. Equal values may be shown once.
# Assays:
# [1] = tested on: CD86; test: CD86 expression in circulating phagocytes, Aβ25-35 model; type: in vivo, rat; conditions: Aβ25-35 AD rats
# Protocol: The phenotypic profile of phagocytes of various localization was characterized by the expression of markers of functional maturity and metabolic polarization (CD206 and CD86), which was determined by flow cytometry and the use of monoclonal antibodies of appropriate specificity marked with fluorescent dyes (Abcam, Becton Dickinson).
# [2] = tested on: rat models of Aβ25-35-induced Alzheimer's disease; test: Barnes maze memory and cognitive flexibility tests, Aβ25-35-induced AD rats; conditions: for Time spent near the entrance to the “escape box”, after surgery / Time spent near the entrance to the “escape box”, % of changes / Time spent near the entrance to the “escape box”, before surgery / Time spent to find the “escape box”, after surgery / Time spent to find the “escape box”, % of changes / Time spent to find the “escape box”, before surgery: Aβ25-35 model; for Time spent near the entrance to the “escape box”, after surgery / Time spent near the entrance to the “escape box”, % of changes / Time spent near the entrance to the “escape box”, before surgery: cognitive flexibility; for Time spent near the entrance to the “escape box”, after surgery / Time spent to find the “escape box”, after surgery: after surgery and treatment; for Time spent near the entrance to the “escape box”, after surgery / Time spent near the entrance to the “escape box”, before surgery / Time spent to find the “escape box”, after surgery / Time spent to find the “escape box”, before surgery: M ± SD; for Time spent near the entrance to the “escape box”, % of changes / Time spent to find the “escape box”, % of changes: after vs before surgery; for Time spent near the entrance to the “escape box”, before surgery / Time spent to find the “escape box”, before surgery: baseline before surgery
# Description: An animal learns to remember the location of the target zone (“escape box”) using peripheral visual cues in the testing area as reference points.
# Barnes maze used consisted of a circular table with 16 circular holes around its circumference. Peripheral visual cues, such as black marks (a triangle on one wall and two parallel strips on the opposite wall), were placed for better orientation of the animal. Under one of the holes an “escape box” containing standard filler for animals was fixed. Each animal was assigned its number of the hole to which the “escape box” was fixed. The other holes remained open. Before performing the probe phase (after the operation), the number of the hole was changed.
# On the 1st day of the experiment, during the first training of rats, a habituation session was performed, which was not repeated during the probe phase. A rat was placed in the center of the circular table and kept under a non-transparent hood for 10 seconds. The light above the table was then turned on and the hood lifted. The rat was allowed to move freely around the table for 2-3 minutes.
# Fifteen minutes after the habituation session, on the 2nd, 3rd and 4th days of the experiment, the task training was repeated 4 times every 15 minutes (min) (3 min on the table surface+1 min in the “escape box” with the light off). The time during which the animal managed to reach the “escape box” was recorded at each trial.
# Short-term memory of the animals was tested on the 5th day, and long-term memory was tested on the 9th day (5th day after the last training). All the holes of the maze were closed, and the rat was allowed to freely explore the open arena for 90 seconds to find “its” corresponding hole on the table top (under which the “escape box” was previously located) based on previously acquired skills. The amount of time the animal spent searching for the correct hole, and the time it spent near the hole was recorded. The table surface was disinfected after each trial.
# 18 days after the operation, the animals had another 4-day training session (probe phase) with a changed location of the “escape box”. As in the case before the operation, short-term memory was tested on the 5th day, and long-term memory was tested on the 9th day (5th day after the last training session).
# [3] = tested on: rat models of Aβ1-40-induced Alzheimer's disease; test: Barnes maze memory and cognitive flexibility tests, Aβ1-40-induced AD rats; type: in vivo; conditions: Aβ1-40 model; for Time spent near the entrance to the “escape box”, after surgery / Time spent near the entrance to the “escape box”, % of changes / Time spent near the entrance to the “escape box”, before surgery: cognitive flexibility; for Time spent near the entrance to the “escape box”, after surgery / Time spent to find the “escape box”, after surgery: after surgery and treatment; for Time spent near the entrance to the “escape box”, after surgery / Time spent near the entrance to the “escape box”, before surgery / Time spent to find the “escape box”, after surgery / Time spent to find the “escape box”, before surgery: M ± SD; for Time spent near the entrance to the “escape box”, % of changes / Time spent to find the “escape box”, % of changes: after vs before surgery; for Time spent near the entrance to the “escape box”, before surgery / Time spent to find the “escape box”, before surgery: baseline before surgery
# Protocol: Kinga Gawel et al., Assessment of spatial learning and memory in the Barnes maze task in rodents-methodological consideration, Naunyn Schmiedebergs Arch Pharmacol. 2019; 392(1): 1-18. doi: 10.1007/s00210-018-1589-y.
# The other holes remained open.
# The rat was allowed to move freely around the table for 2-3 minutes.
# Fifteen minutes after the habituation session, on the 2nd, 3rd and 4th days of the experiment, the task training was repeated 4 times every 15 minutes (min) (3 min on the table surface+1 min in the “escape box” with the light off).
# The table surface was disinfected after each trial.
# 18 days after the operation, the animals had another 4-day training session (probe phase) with a changed location of the “escape box”.
# The following time periods were measured in seconds: 1) the time the animal spent to find the entrance to the “escape box” (assessment of spatial learning and spatial memory associated with the hippocampal function); 2) the time the animal spent near the entrance (assessment of cognitive flexibility associated with the function of the frontal cortex of the brain)—the less time the animal spends near the closed entrance, the quicker it understands that it is necessary to look for escape elsewhere.
# [4] = Body weight changes in rat models of Aβ1-40-induced AD; type: in vivo; conditions: Aβ1-40 AD rats, treated group; baseline before the operation
# Description: Male Wistar rats (300-500 g) were used. The animals were maintained under standard conditions in the vivarium of the ESC “Institute of Biology and Medicine” of Taras Shevchenko National University of Kyiv. They were given ad libitum access to food and water.
# Alzheimer's Disease was induced in old male rats (14 months old) by giving them intrahippocampal injections of aggregated Amyloid Beta (Aβ 1-40) Peptide (human) (Cayman Chemical Company) and Amyloid Beta (Aβ 25-35) Peptide (human) (Tocris Bioscience, Brostol). Aβ1-40 and Aβ 25-35 were dissolved in bidistilled water to the concentration of 15 μmol/L and incubated at 37° C. for 24 hours for aggregation. Aβ conglomerates were broken up by ultrasound and sterilized immediately prior to injection.
# Rats were anesthetized using a mixture of ketamine (75 mg/kg, diluted in sterile water for injection, Sigma, USA) and 2% xylazine (100 μl/rat, Alfasan International B.V., Netherlands) administered intraperitoneally in a total volume of 1 ml. A rat was placed in a stereotaxic apparatus (SEZH-4) modified for rats. The animal was then scalped from the point of intersection of the sagittal suture with bregma (zero point): 2 mm distally, 2 mm laterally and 3.5 mm in depth and a trephine opening was made with an injection needle, directly into the hippocampus. […]
# [5] = tested on: tyrosine hydroxylase (TH); test: Immunohistochemical identification of tyrosine hydroxylase in hippocampus, Aβ1-40-induced AD rats; type: in vivo, rat; conditions: Aβ1-40 AD rats; TH-positive hippocampal cells; individual animals 661 E, F, G; listed as Zn
# Protocol: (§1) Degeneration of the hippocampal neurons was assessed using immunohistochemical analysis for the expression level of tyrosine hydroxylase (TH). Immunohistochemical staining was performed using primary anti-TH antibodies at a 1:200 dilution (Millipore, AB152). Endogenous peroxidase activity was blocked with a blocking reagent (Dako, EnVision Flex, DM821). Nonspecific antibody binding was blocked using 4% dry milk dissolved in Tris-buffered saline (TBS) containing 0.2% Triton X-100.
# (§2) The primary antibody was diluted in TBS containing 0.2% Triton X-100 and applied to tissue sections. The sections were then incubated overnight (+4° C.). Secondary antibodies (anti-rabbit biotinylated antibodies, 1:200) were incubated for 60 minutes. The immunoreaction was developed using diaminobenzidine (Dako, EnVision) applied for 5 minutes. The results of immunohistochemical staining were evaluated at the light-optical level using a Zeiss Primo Star microscope. The intensity of TH-positive staining was evaluated using a semiquantitative scoring system as described in the Quantitative Scoring Method ([http://www.ihcworld.com/ihc_scoring.htm]) taking into account the number of positive (stained) cells and the intensity of staining (Table 1). The results were presented as a quick score (Q) calculated by the following formula: Q=P×I, where P is the percentage of positive cells and I is the staining intensity.
# [6] = tested on: tyrosine hydroxylase (TH); test: Immunohistochemical identification of tyrosine hydroxylase in hippocampus, Aβ25-35-induced AD rats; type: in vivo, rat; conditions: Aβ25-35 AD rats
# Protocol: as §1, §2
# [7] = long-term memory, 5 days following training
# [8] = short-term memory, 24 hours following training
substance,measurement,setting,value
^64Zn-aspartate,expression of CD86 by circulating phagocytes,[1],elevated
same,fraction of CD86+ cells among circulating phagocytes,[1],increase
same,tendency towards impairment of long-term memory,[2]; Aβ25-35 AD rats,not improved
same,"Time spent near the entrance to the “escape box”, after surgery",[2]; 24 hours following training,30.67 ± 7.32 s
same,"Time spent near the entrance to the “escape box”, % of changes",[2]; 24 hours following training,12.2%
same,"Time spent near the entrance to the “escape box”, before surgery",[2]; 24 hours following training,27.33 ± 4.06 s
same,"Time spent near the entrance to the “escape box”, after surgery",[2]; 5 days following training,18.17 ± 5.38 s
same,"Time spent near the entrance to the “escape box”, % of changes",[2]; 5 days following training,−40.76%
same,"Time spent near the entrance to the “escape box”, before surgery",[2]; 5 days following training,30.67 ± 4.32 s
same,"Time spent to find the “escape box”, after surgery",[2]; [7],21.83 ± 12.53 s
same,"Time spent to find the “escape box”, % of changes",[2]; [7],48.86%
same,"Time spent to find the “escape box”, before surgery",[2]; [7],14.67 ± 3.53 s
same,"Time spent to find the “escape box”, after surgery",[2]; [8],8.33 ± 5.76 s
same,"Time spent to find the “escape box”, % of changes",[2]; [8],−37.5%
same,"Time spent to find the “escape box”, before surgery",[2]; [8],13.33 ± 7.8 s
same,"Time spent near the entrance to the “escape box”, after surgery",[3]; 24 hours following training,22.57 ± 7.77 s
same,"Time spent near the entrance to the “escape box”, % of changes",[3]; 24 hours following training,−31.6%
same,"Time spent near the entrance to the “escape box”, before surgery",[3]; 24 hours following training,33 ± 7.39 s
same,"Time spent near the entrance to the “escape box”, after surgery",[3]; 5 days following training,29 ± 6.14 s
same,"Time spent near the entrance to the “escape box”, % of changes",[3]; 5 days following training,23.03%
same,"Time spent near the entrance to the “escape box”, before surgery",[3]; 5 days following training,23.57 ± 6.61 s
same,"Time spent to find the “escape box”, after surgery",[3]; [7],5 ± 1.54 s
same,"Time spent to find the “escape box”, % of changes",[3]; [7],−70.59%
same,"Time spent to find the “escape box”, before surgery",[3]; [7],17 ± 6.74 s
same,"Time spent to find the “escape box”, after surgery",[3]; [8],4.14 ± 0.74 s
same,"Time spent to find the “escape box”, % of changes",[3]; [8],−42.04%
same,"Time spent to find the “escape box”, before surgery",[3]; [8],7.14 ± 1.49 s
same,body weight before the operation,[4],432.1 ± 29.7 g
same,Q = P × I,[5],4 and 2 and 6
same,Q = P × I,"[6]; TH-positive hippocampal cells, individual animals 663 A, B, listed as Zn",6 and 4
same,staining intensity of TH-positive cells,[6]; hippocampus,no effect
same,"tyrosine hydroxylase expression, Q value (group mean)",[6]; hippocampus,5.0±1.4
